The supplement of paper PMC10307832

Legend:
Experiment in all cases: relative viability (nuclei count vs DMSO), 5 days (fraction); higher = more cells survive
[1] = compound: COC1=CC=C(C=C1)CN2C=CC3=C2C=C(C=C3)C(=O)NO + CC1(C)CCC(c2ccc(Cl)cc2)=C(CN2CCN(c3ccc(C(=O)NS(=O)(=O)c4ccc(N[C@H](CCN5CCOCC5)CSc5ccccc5)c(S(=O)(=O)C(F)(F)F)c4)cc3)CC2)C1 [Navitoclax] (partner 0.5 µM)
How it was run: (§1)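 Relative viability is defined as nuclei in treated wells over nuclei in vehicle wells. Duplicate plates were run and medians reported. Lung cancer cell lines in 1536-well plates were dosed by pin tool one day after seeding, with one drug or with a fixed anchor-drug dose plus five library-drug doses (not always all listed) in √10 steps, and nuclei were counted after 5 days.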

[2] = compound: COC1=CC=C(C=C1)CN2C=CC3=C2C=C(C=C3)C(=O)NO + CC(=O)Nc1cccc(-n2c(=O)n(C3CC3)c(=O)c3c(Nc4ccc(I)cc4F)n(C)c(=O)c(C)c32)c1 [Trametinib] (partner 0.02 µM)
How it was run: as §1

[3] = compound: COC1=CC=C(C=C1)CN2C=CC3=C2C=C(C=C3)C(=O)NO + C[C@]1(O)C[C@@H](c2nc(-c3ccc4ccc(-c5ccccc5)nc4c3)c3c(N)nccn32)C1 [Linsitinib] (partner 1 µM)
How it was run: as §1

[4] = compound: COC1=CC=C(C=C1)CN2C=CC3=C2C=C(C=C3)C(=O)NO + CC(=O)c1c(C)c2cnc(Nc3ccc(N4CCNCC4)cn3)nc2n(C2CCCC2)c1=O [Palbociclib] (partner 0.5 µM)
How it was run: as §1

Cell Line | relative viability ([1]; first compound 0.253 µM) | relative viability ([1]; first compound 0.8 µM) | relative viability ([1]; first compound 2.53 µM) | relative viability ([1]; first compound 8 µM) | relative viability ([2]; first compound 0.08 µM) | relative viability ([2]; first compound 0.253 µM) | relative viability ([2]; first compound 0.8 µM) | relative viability ([2]; first compound 2.53 µM) | relative viability ([2]; first compound 8 µM) | relative viability ([3]; first compound 0.253 µM) | relative viability ([3]; first compound 0.8 µM) | relative viability ([3]; first compound 2.53 µM) | relative viability ([3]; first compound 8 µM) | relative viability ([4]; first compound 0.08 µM) | relative viability ([4]; first compound 0.253 µM) | relative viability ([4]; first compound 0.8 µM) | relative viability ([4]; first compound 2.53 µM) | relative viability ([4]; first compound 8 µM) | relative viability ([1]; first compound 0.08 µM) | relative viability ([3]; first compound 0.08 µM)
HCC-366 | 1.05 | 1.14 | 1.06 | 1.13 | 0.293 | 0.28 | 0.328 | 0.295 | 0.333 | 0.98 | 0.636 | 0.673 | 0.696 | 0.339 | 0.372 | 0.38 | 0.367 | 0.389 |  | 
HCC-827 | 0.964 | 0.988 | 1.08 | 0.986 | 0.539 | 0.537 | 0.528 | 0.533 | 0.514 | 0.94 | 0.942 | 0.981 | 0.883 | 0.448 | 0.481 | 0.442 | 0.504 | 0.442 | 0.95 | 0.994
HOP-62 | 0.984 | 1.02 | 1.08 | 1.02 | 0.362 | 0.399 | 0.371 | 0.391 | 0.375 | 1.06 | 1.01 | 0.924 | 1.04 | 0.321 | 0.442 | 0.431 | 0.413 | 0.493 | 0.547 | 0.681
IA-LM | 0.882 | 1.02 | 0.851 | 0.695 |  |  |  |  |  | 0.587 | 0.492 | 0.698 | 0.663 |  |  |  |  |  | 0.675 | 0.613
LC-2-ad | 0.427 | 0.561 | 0.527 | 0.552 | 0.841 | 0.899 | 0.882 | 0.938 | 0.991 | 0.851 | 0.873 | 0.999 | 0.804 | 0.446 | 0.532 | 0.506 | 0.484 | 0.47 | 0.421 | 0.783
LCLC-97TM1 | 0.505 | 0.472 | 0.42 | 0.412 |  | 0.201 | 0.228 | 0.19 | 0.204 | 0.212 | 0.225 | 0.206 | 0.156 |  | 0.226 | 0.23 | 0.223 | 0.229 |  | 
LCLC-103H |  |  |  |  | 0.653 | 0.65 | 0.715 | 0.694 | 0.679 | 1.13 | 0.991 | 1.07 | 1.02 | 0.435 | 0.439 | 0.481 | 0.466 | 0.515 |  | 1.03
LK-2 | 0.906 | 1 | 0.958 | 0.747 | 0.534 | 0.694 | 0.658 | 0.686 | 0.646 | 0.45 | 0.579 | 0.515 | 0.533 |  | 0.821 | 0.832 | 0.582 | 0.699 |  | 
LOU-NH91 | 0.677 | 0.739 | 0.725 | 0.576 |  | 0.754 | 0.778 | 0.808 | 0.766 | 0.995 | 1.04 | 0.954 | 0.913 |  | 0.537 | 0.548 | 0.574 | 0.529 | 0.419 | 0.74
LU99A | 0.787 | 0.803 | 0.847 | 0.878 |  | 0.61 | 0.553 | 0.548 | 0.455 | 0.581 | 0.533 | 0.552 | 0.569 |  | 0.406 | 0.424 | 0.416 | 0.352 |  | 
NCI-H358 |  |  |  |  |  | 0.165 | 0.153 | 0.15 | 0.112 | 0.903 | 0.792 | 0.742 | 0.851 |  | 0.125 | 0.115 | 0.14 | 0.191 |  | 
NCI-H522 |  |  |  |  |  | 0.812 | 0.678 | 0.767 | 0.64 |  |  |  |  |  | 0.944 | 0.972 | 0.999 | 0.955 |  | 
NCI-H596 | 0.906 | 1.07 | 0.963 | 1.04 | 0.64 | 0.797 | 0.923 | 0.776 | 0.758 | 1.08 | 1.01 | 0.915 | 0.992 |  |  |  |  |  | 0.944 | 0.982
NCI-H650 |  |  |  |  | 1.07 | 0.981 | 1 | 1.03 | 1.04 | 0.849 | 0.95 | 0.936 | 0.725 | 0.328 | 0.381 | 0.353 | 0.319 | 0.32 |  | 0.793
NCI-H661 |  |  |  |  |  | 0.634 | 0.611 | 0.533 | 0.457 | 0.525 | 0.555 | 0.521 | 0.46 |  | 0.406 | 0.403 | 0.422 | 0.353 |  | 
NCI-H1299 | 1.06 | 1.07 | 1.07 | 1.02 |  |  |  |  |  | 0.976 | 0.994 | 0.977 | 0.959 |  |  |  |  |  | 1.01 | 0.952
NCI-H1563 |  |  |  |  |  |  |  |  |  | 1.18 | 1.26 | 1.18 | 1.12 |  |  |  |  |  |  | 1.1
NCI-H1648 |  |  |  |  | 0.413 | 0.42 | 0.461 | 0.583 | 0.438 |  |  |  |  | 0.254 | 0.309 | 0.298 | 0.277 | 0.269 |  | 
NCI-H1650 | 1.32 | 1.17 | 1.18 | 0.925 | 0.543 | 0.595 | 0.645 | 0.624 | 0.539 |  |  |  |  | 0.355 | 0.341 | 0.354 | 0.426 | 0.351 | 1.07 | 
NCI-H1703 | 1.09 | 1.27 | 1.01 | 1.08 |  |  |  |  |  | 0.783 | 1.09 | 0.69 | 1.16 |  |  |  |  |  | 1.49 | 
NCI-H2170 | 0.669 | 0.715 | 0.634 | 0.509 | 0.888 | 0.931 | 0.867 | 0.897 | 0.865 |  |  |  |  | 0.374 | 0.374 | 0.412 | 0.361 | 0.367 | 0.476 | 
NCI-H2342 |  |  |  |  | 0.815 | 0.901 | 0.759 | 0.971 | 0.861 |  |  |  |  | 0.467 | 0.586 | 0.52 | 0.538 | 0.559 |  | 
SW 900 |  |  |  |  | 0.722 | 0.774 | 0.872 | 0.674 | 0.766 |  |  |  |  | 0.491 | 0.564 | 0.565 | 0.525 | 0.51 |  | 
